Experimental data: US20210244686A1, “Novel Systems And Methods For The Therapeutic Use of Cannabinoids or Cannabinoid Analogs to Increase The Lipid Order of Cholesterol Containing Cell Membranes” (The Regents of the University of Colorado a body corporate, priority 2018, published 2021)
pEC50: −log10 of the molar value.

Experiments:
Type in all cases: cell-based, human
[1] = test system: SK-N-BE(2) cells; assay: cells
Experimental: To efficiently design the multi-omics experiments, the present inventors exposed the neuroblastoma cell line SK-N-BE(2) to escalating doses of CBD at 24, 48, and 72 hours and determined the EC50 of toxicity of CBD to be greatest at 72 hours and at an approximate concentration of 20 μM (FIG. 1 B). To maximize the efficient use of the inventor's multi-omic resources, a large dose and time survey of the CBD response was conducted in a panel of transgenic SK-N-BE(2) and HaCaT keratinocyte cell lines, each expressing a genetically encoded förster resonance energy transfer (FRET) biosensor gene capable of reporting the activity of a cellular effector molecule/activity including, but not limited to: AMP kinase activity, Erk kinase activity, cytosolic ATP, glucose, lactate, pyruvate & glutamine, Ca^2+ in the ER & Cytosol, mTor kinase activity & TACE protease activity. […] The biosensor activity profiles as a function of CBD dose and time (FIGS. 9A-C) were analyzed for the EC50 of each biosensor activity at each time (FIG. 10). The result of these efforts outlined that the most robust dose of CBD for use in multi-omic experiments is 20 μM and that the kinetic profile of the CBD response begins in hours and persists for days.

[2] = test system: SK-N-BE(2) cells; assay: Live cell confocal microscopy of NBD-cholesterol and lysotracker; conditions: after 24 hours, only with NPC1 inhibitor U18666A and CBD 20 μM
Description: One possible explanation for why CBD sensitizes cells to inhibitors of cholesterol trafficking and storage is that CBD increases the flux of cholesterol from the plasma membrane to the lysosome-ER transport pathway. When this flux is activated and hydroxy cholesterol is supplied in excess, the inability to efficiently store cholesterol may cause subcellular accumulation of cholesterol/hydroxycholesterol in organelles that normally maintain low cholesterol levels. To test this hypothesis, the inventor's repeated the live cell confocal microscopy experiments with SK-N-BE(2) cells stained with fluorescent cholesterol (NBD-cholesterol) and the lysosome dye lysotracker.
SK-N-BE(2) cells were seeded into fibronectin coated glass bottom 96 well plates (Matriplate) at a cell density of 40,000 cells/well using low background imaging media (FluoroBrite DMEM with all supplements described, above). At the time of seeding, nile red (ThermoFisher) was added at a final concentration of 100 ng/mL and NBD-cholesterol (ThermoFisher) was added at a final concentration of 10 μg/mL. […] Lipid droplets and their sizes were detected and quantified using the ImageJ Find Particles Function, and data was subsequently processed using Microsoft Excel. Error depicted represents the standard deviation calculated from three biological replicates. […]

[3] = test system: SK-N-BE(2) cells; assay: Subcellular fractionation and LC-MS of CBD distribution; conditions: 24 hrs
Experimental: In a metabolomics survey of SK-N-BE(2) cells exposed to CBD, the present inventors were able to determine that CBD is concentrated in insoluble components […]. As a result, the inventors designed and executed a subcellular fractionation method to isolate nuclear membrane, plasma membrane, and ER membrane fractions.
Extraction of cholesterol, precursors, free fatty acids, cholesteryl esters, and phospho lipids were performed in the following manner. SK-N-BE(2) cells in 10 cm dishes were washed with 10 mL PBS twice and then cells were scraped and pelleted at 400 rcf for 2 minutes. […]
Analytes were resolved over an ACQUITY HSS T3 column (2.1×150 mm, 1.8 μm particle size (Waters, Mass., USA) using an aqueous phase (A) of 25% acetonitrile and 5 mM ammonium acetate and a mobile phase (B) of 90% isopropanol, 10% acetonitrile and 5 mM ammonium acetate. The column was equilibrated at 30% B, and upon injection of […] of extract, samples were eluted from the column using the solvent gradient: 0-9 min 30-100% B and 0.325 mL/min; hold at 100% B for 3 min at 0.3 mL/min, and then decrease to 30% over 0.5 min at 0.4 ml/min, followed by a re-equilibration hold at 30% B for 2.5 minutes at 0.4 ml/min. […] Samples were analyzed in randomized order with a technical mixture injected incrementally to qualify instrument performance. […]

C=C(C)[C@@H]1CCC(C)=C[C@H]1c1c(O)cc(CCCCC)cc1O [CBD, cannabidiol]
pEC50 ([1]; Homo sapiens, SKNBE2, SK-N-BE(2), greatest at 72 hours, approximate, read-out: EC50 of toxicity): ~4.70
doses that can induce cell death ([1]; after 24 hours): > 40 µM
fluorescent cholesterol in lysosomes [2]: accumulates in labeled lysosomes
CBD incorporated into ER and nuclear membranes [3]: detectable amount
